# Assay results reported in the supplement of paper PMC11208160.
# Experiment: recombinant barcode read abundance after kanamycin selection (control-corrected) (log10(CPM+1)); higher = more efficient recombination; sequences stand for … in AGTGCAGAGAAAATCGGCCAGTTTTCTCTGCCTGCAGTCCGCATGCCGT…AGATTTATGCAGCGGACTGCCTTTCTCCCAAAGTGATAAACCGGACAGTATCATGGACCGGTTTTCCCGGTAATCCGTATTTGCAAGGTTGGTTTCACT; site = the 11-nt target
# In short: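 Recombination efficiency draws on barcodes counted at recombinant junctions in a pooled E. coli screen of targets paired with IS621 bridge RNA target-binding loops. The counts were converted to counts per million, averaged and corrected against the chloramphenicol/ampicillin LB agar control, then reported as log10(CPM+1). Selection plates held chloramphenicol/ampicillin/kanamycin with 0.1 mM IPTG, with two replicates per condition.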
# 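Further: IS621 recombinase and bridge RNA in Escherichia coli cells.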
row,Sequence,recombinant barcode read abundance (log10)
1,AGGTTCCCTTGGGTTCTAACCTGTTGCTA (site AGGTTCCCTTA),1.32
2,AGGTTCCCTTGGGTTCTAACCTGTTGCTT (site AGGTTCCCTAA),1.41
3,AGGTTCCCTTGGGTTCTAACCTGTTGCTT (site AGGTTCCCTCA),0.0899
4,AGGTTCCCTTGGGTTCTAACCTGTTGCTT (site AGGTTCCCTGA),0.621
5,AGGTTCCCTTGGGTTCTAACCTGTTGCTT (site AGGTTCCCTTA),0.183
6,AGGTTTGCTTGGGTTCTAACCTGTTGCCT (site AGGTATGCTAG),0.168
7,AGGTTTGCTTGGGTTCTAACCTGTTGCCT (site AGGTCTGCTAG),0.471
8,AGGTTTGCTTGGGTTCTAACCTGTTGCCT (site AGGTGTGCTAG),0.018
9,AGGTTTGCTTGGGTTCTAACCTGTTGCCT (site AGGTTTGCTAG),0.0479
10,AGGTTTGCTTGGGTTCTAACCTGTTGCTT (site AGGTTTGCTAA),0.00886
11,AGGTTTGCTTGGGTTCTAACCTGTTGCTT (site GTCACAACTCG),0.101
12,AGTACGCCTTGGGTTCTAACCTGTTGCCT (site AGTACGCCTAG),0.0474
13,AGTACGCCTTGGGTTCTAACCTGTTGCCT (site TGAACGCCTAG),0.07
14,AGTAGAACTTGGGTTCTAACCTGTTGCCT (site AGTAGAACTAG),0.387
15,AGTAGAACTTGGGTTCTAACCTGTTGCCT (site CGTAGAGCTAG),0.172
16,AGTAGGACTTGGGTTCTAACCTGTTGCCT (site AGTAGGACTAG),0.242
17,AGTAGGACTTGGGTTCTAACCTGTTGCCT (site CGTAGGACTAG),0
18,AGTAGGACTTGGGTTCTAACCTGTTGCCT (site GGTAGGACTAG),0.0674
19,AGTAGGACTTGGGTTCTAACCTGTTGCCT (site TGTAGGACTAG),0.213
20,AGTAGTTCTTGGGTTCTAACCTGTTGCAG (site AGTAGTTCTCT),0.683
21,AGTAGTTCTTGGGTTCTAACCTGTTGCAG (site CTCGTAGCTAG),0.104
22,AGTCAAACTTGGGTTCTAACCTGTTGCCT (site AGTCAAACTAG),0.157

row,Sequence,recombinant barcode read abundance (log10)
1,AGTCAAACTTGGGTTCTAACCTGTTGCCT (site AGTCATACTAG),0.141
2,AGTCACACTTGGGTTCTAACCTGTTGCTA (site AGTCACACTCA),0.179
3,AGTCACACTTGGGTTCTAACCTGTTGCTA (site AGTCACACTTA),1.48
4,AGTCAGTCTTGGGTTCTAACCTGTTGCGT (site AGTCAGTCTAC),2.33
5,AGTCAGTCTTGGGTTCTAACCTGTTGCGT (site AGTCATTCTAT),0.0526
6,AGTCATACTTGGGTTCTAACCTGTTGCCT (site AGTCAAACTAG),0
7,AGTCATACTTGGGTTCTAACCTGTTGCCT (site AGTCATACTAG),0.232
8,AGTCATCCTTGGGTTCTAACCTGTTGCCT (site AGTCATACTAT),0.0998
9,AGTCATCCTTGGGTTCTAACCTGTTGCCT (site AGTCATCCTAG),0.667
10,AGTCCTGCTTGGGTTCTAACCTGTTGCCT (site AGTCCTGCTAG),0.722
11,AGTCCTGCTTGGGTTCTAACCTGTTGCCT (site CGTCCTGCTAG),0.072
12,AGTCCTGCTTGGGTTCTAACCTGTTGCCT (site GGTCCTGCTAG),0.154
13,AGTCCTGCTTGGGTTCTAACCTGTTGCCT (site TGTCCTGCTAG),0.0318
14,AGTCGATCTTGGGTTCTAACCTGTTGCTT (site ACTCGATCTAG),0.0101
15,AGTCGATCTTGGGTTCTAACCTGTTGCTT (site AGTCGATCTAA),0.496
16,AGTCGGCCTTGGGTTCTAACCTGTTGCCT (site AGTCGGCCTAG),0.129
17,AGTCGGCCTTGGGTTCTAACCTGTTGCCT (site ATTCGGCCTAG),0.228
18,AGTCGGTCTTGGGTTCTAACCTGTTGCAT (site AGTCGGTCTAT),0.813
19,AGTCGGTCTTGGGTTCTAACCTGTTGCAT (site GGTCCGTCTAT),0.0825
20,AGTCTACCTTGGGTTCTAACCTGTTGCTT (site AGTCTACCTAA),0.331
21,AGTCTACCTTGGGTTCTAACCTGTTGCTT (site CGTCTACCTAA),0.0324
22,AGTCTAGCTTGGGTTCTAACCTGTTGCCT (site AGTCTAGCTAG),0.0325

row,Sequence,recombinant barcode read abundance (log10)
1,AGTCTAGCTTGGGTTCTAACCTGTTGCCT (site AGTCTAGCTCG),0.692
2,AGTCTAGCTTGGGTTCTAACCTGTTGCCT (site AGTCTAGCTGG),0.141
3,AGTCTAGCTTGGGTTCTAACCTGTTGCCT (site AGTCTAGCTTG),0.0207
4,AGTCTAGCTTGGGTTCTAACCTGTTGCTA (site AGTCTAGCTGA),0.166
5,AGTCTAGCTTGGGTTCTAACCTGTTGCTA (site AGTCTAGCTTA),0.175
6,AGTGAGACTTGGGTTCTAACCTGTTGCGG (site ACCGAGACTCC),1.09
7,AGTGAGACTTGGGTTCTAACCTGTTGCGG (site AGTGAGACTCC),2.99
8,AGTGCGCCTTGGGTTCTAACCTGTTGCTA (site AGTGCGCCTTA),0.341
9,AGTGCGCCTTGGGTTCTAACCTGTTGCTA (site AGTTCGCCTTA),0.29
10,AGTGTCGCTTGGGTTCTAACCTGTTGCGG (site AGTATCGCTCC),0.96
11,AGTGTCGCTTGGGTTCTAACCTGTTGCGG (site AGTCTCGCTCC),0.0162
12,AGTGTCGCTTGGGTTCTAACCTGTTGCGG (site AGTGTCGCTCC),1.6
13,AGTGTCGCTTGGGTTCTAACCTGTTGCGG (site AGTTTCGCTCC),0.301
14,AGTTCTCCTTGGGTTCTAACCTGTTGCCT (site AGTTCTCCTAG),0.0504
15,AGTTCTCCTTGGGTTCTAACCTGTTGCCT (site CGTTCTCCTAG),0.415
16,AGTTCTCCTTGGGTTCTAACCTGTTGCCT (site GGTTCTCCTAG),0.207
17,AGTTCTCCTTGGGTTCTAACCTGTTGCCT (site TGTTCTCCTAG),0.456
18,AGTTGCACTTGGGTTCTAACCTGTTGCCT (site AGTTACACTAG),0.14
19,AGTTGCACTTGGGTTCTAACCTGTTGCCT (site AGTTCCACTAG),0.11
20,AGTTGCACTTGGGTTCTAACCTGTTGCCT (site AGTTGCACTAG),0.423
21,AGTTGCACTTGGGTTCTAACCTGTTGCCT (site AGTTTCACTAG),0.0516
22,AGTTTAACTTGGGTTCTAACCTGTTGCAC (site AGTTTAACTGT),0.0458
